This assay concerns the target T1, human TGR5 (Homo sapiens, UniProt Q8TDU6).
T1 construct: expressed in transfected cells; host or cells: HEK293
T1 sequence (Q8TDU6 1-330): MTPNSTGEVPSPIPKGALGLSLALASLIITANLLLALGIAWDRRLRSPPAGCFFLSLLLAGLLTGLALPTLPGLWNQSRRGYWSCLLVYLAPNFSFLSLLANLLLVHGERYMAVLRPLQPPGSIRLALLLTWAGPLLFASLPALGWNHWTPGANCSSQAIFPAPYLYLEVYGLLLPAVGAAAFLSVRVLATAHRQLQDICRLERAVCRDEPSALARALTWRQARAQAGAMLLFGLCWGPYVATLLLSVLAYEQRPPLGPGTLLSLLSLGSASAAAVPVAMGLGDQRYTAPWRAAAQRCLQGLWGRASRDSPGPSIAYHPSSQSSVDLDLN
Description: Cell-based TGR5 assay (cAMP generation, HTRF). As to conditions: HEK293 cells stably transfected with human TGR5; cAMP by HTRF; 30 minutes at 37° C.; read-out: pEC50 Human TGR5 (converted). The procedure, abridged:
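First, compounds in 3-fold serial dilution were placed in HBSS with 10 mM HEPES pH 7.4 and 0.5 mM IBMX. Next, human TGR5-expressing HEK293 cells were added and incubated 30 min at 37° C. Finally, cAMP was detected by HTRF and pEC50 derived by logistic fitting.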
For the compound `CN(C[C@H](O)[C@@H](O)[C@H](O)[C@H](O)CO)C(=O)CCC[S+]([O-])c1ccc(Cl)c(CNC2(c3cnccc3-c3ccccc3OC3CC3)CC2)c1` (stereo partly drawn) [Compound I-647, 4-{4-chloro-3-[({1-[4-(2-cyclopropoxyphenyl)pyridin-3-yl]cyclopropyl}amino)methyl]benzenesulfinyl}-N-methyl-N-[(2S,3R,4R,5R)-2,3,4,5,6-pentahydroxyhexyl]butanamide], the EC50 was 126 to 1000 nM.
In the case of `CCN(CCCCc1cc(Cl)c(COC2(c3cnccc3-c3ccccc3OC3CC3)CC2)cc1Cl)C(=O)[C@@H](O)[C@@H](O)[C@H](O)[C@@H](O)CO` (stereo in doubt) [Compound I-209, (2S,3S,4R,5S)-N-{4-[2,5-dichloro-4-({1-[4-(2-cyclopropoxyphenyl)pyridin-3-yl]cyclopropoxy}methyl)phenyl]butyl}-N-ethyl-2,3,4,5,6-pentahydroxyhexanamide] it was less than 100 nM; in that of `O=C(CCCCc1cc(Cl)c(CNC2(c3cnccc3-c3ccccc3OC3CC3)CC2)cc1Cl)NC[C@H](O)[C@@H](O)[C@H](O)[C@H](O)CO` [Compound I-62, 5-[2,5-dichloro-4-[([1-[4-(2-cyclopropoxyphenyl)pyridin-3-yl]cyclopropyl]amino)methyl]phenyl]-N-[(2S,3R,4R,5R)-2,3,4,5,6-pentahydroxyhexyl]pentanamide], 126 to 1000 nM; in that of `O=C(NCCCCSc1ccc(Cl)c(COC2(c3cnccc3-c3ccccc3OC3CC3)CC2)c1)N[C@H]1CC[C@@H](NC(=O)NC[C@H](O)[C@@H](O)[C@H](O)[C@H](O)CO)CC1` [Compound I-635, 1-(4-{[4-chloro-3-({1-[4-(2-cyclopropoxyphenyl)pyridin-3-yl]cyclopropoxy}methyl)phenyl]sulfanyl}butyl)-3-[(1s,4s)-4-({[(2S,3R,4R,5R)-2,3,4,5,6-pentahydroxyhexyl]carbamoyl}amino)cyclohexyl]urea], less than 100 nM.
The figure for `CC(CCCN)c1ccc(Cl)c(CNC2(c3cnccc3-c3ccccc3OC3CC3)CC2)c1` (centres unmarked) [Compound I-252, N-{[5-(5-aminopentan-2-yl)-2-chlorophenyl]methyl}-1-[4-(2-cyclopropoxyphenyl)pyridin-3-yl]cyclopropan-1-amine] is 126 to 1000 nM; for `CC(C)N(CCCCNC(=O)N[C@@H](CO)[C@@H](O)[C@H](O)[C@H](O)CO)S(=O)(=O)c1ccc(Cl)c(CNC(C)(C)c2cnccc2-c2ccccc2OC2CC2)c1` [Compound I-754, 4-chloro-3-(((2-(4-(2-cyclopropoxyphenyl)pyridin-3-yl)propan-2-yl)amino)methyl)-N-isopropyl-N-(4-(3-((2S,3R,4S,5R)-1,3,4,5,6-pentahydroxyhexan-2-yl)ureido)butyl) benzenesulfonamide] it is less than 100 nM; for `Cc1ccc(CCCCNC(=O)NC[C@H](O)[C@@H](O)[C@H](O)[C@H](O)CO)cc1CNC1(c2cnccc2-c2ccccc2OC2CC2)CC1` [Compound I-240, 1-(4-{3-[({1-[4-(2-cyclopropoxyphenyl)pyridin-3-yl]cyclopropyl}amino)methyl]-4-methylphenyl}butyl)-3-[(2S,3R,4R,5R)-2,3,4,5,6-pentahydroxyhexyl]urea] it is less than 100 nM.
In the case of `O=C([C@@H](O)[C@@H](O)[C@H](O)[C@@H](O)CO)N(CCCCCSc1ccc(Cl)c(COC2(c3cnccc3-c3ccccc3OC3CC3)CC2)c1)CCOCCO` [Compound I-489, (2S,3S,4R,5S)-N-(5-[[4-chloro-3-([1-[4-(2-cyclopropoxyphenyl)pyridin-3-yl]cyclopropoxy]methyl)phenyl]sulfanyl]pentyl)-2,3,4,5,6-pentahydroxy-N-[2-(2-hydroxyethoxy)ethyl]hexanamide], the EC50 was less than 100 nM.
In the case of `CCN(C[C@H](O)[C@@H](O)[C@H](O)[C@H](O)CO)C(=O)CCCC(C)c1ccc(C)c(COC2(c3cnccc3-c3ccccc3OC3CC3)CC2)c1` (stereo partly drawn) [Compound I-375, 5-[3-({1-[4-(2-cyclopropoxyphenyl)pyridin-3-yl]cyclopropoxy}methyl)-4-methylphenyl]-N-ethyl-N-[(2S,3R,4R,5R)-2,3,4,5,6-pentahydroxyhexyl]hexanamide] it was less than 100 nM; in that of `O=C(O)CN(C[C@H](O)[C@@H](O)[C@H](O)[C@H](O)CO)C(=O)CCCCc1cc(Cl)c(COC2(c3cnccc3-c3ccccc3OC3CC3)CC2)cc1Cl` [Compound I-87, 2-(5-(2,5-dichloro-4-((1-(4-(2-cyclopropoxyphenyl)pyridin-3-yl)cyclopropoxy)methyl)phenyl)-N-((2S,3R,4R,5R)-2,3,4,5,6-pentahydroxyhexyl)pentanamido)acetic acid], less than 100 nM; in that of `O=C(CN1CCC(NC(=O)NCCCCSc2ccc(Cl)c(COC3(c4cnccc4-c4ccccc4OC4CC4)CC3)c2)CC1)NC[C@H](O)[C@@H](O)[C@H](O)[C@H](O)CO` [Compound I-633, 2-(4-{[(4-{[4-chloro-3-({1-[4-(2-cyclopropoxyphenyl)pyridin-3-yl]cyclopropoxy}methyl)phenyl]sulfanyl}butyl)carbamoyl]amino}piperidin-1-yl)-N-[(2S,3R,4R,5R)-2,3,4,5,6-pentahydroxyhexyl]acetamide], less than 100 nM.
In the case of `CN(C)C(=O)CCN(C[C@H](O)[C@@H](O)[C@H](O)[C@H](O)CO)C(=O)CCCCc1cc(Cl)c(COC2(c3cnccc3-c3ccccc3OC3CC3)CC2)cc1Cl` [Compound I-222, 5-[2,5-dichloro-4-({1-[4-(2-cyclopropoxyphenyl)pyridin-3-yl]cyclopropoxy}methyl)phenyl]-N-[2-(dimethylcarbamoyl)ethyl]-N-[(2S,3R,4R,5R)-2,3,4,5,6-pentahydroxyhexyl]pentanamide] it was less than 100 nM; in that of `CSc1cnc(C)cc1CNC1(c2cnccc2-c2ccccc2OC2CC2)CC1` [Compound I-42, 1-[4-(2-cyclopropoxyphenyl)pyridin-3-yl]-N-{[2-methyl-5-(methylsulfanyl)pyridin-4-yl]methyl}cyclopropan-1-amine], less than 100 nM; in that of `CC(CCCC(=O)NCCN1CCN(C(=O)NC[C@H](O)[C@@H](O)[C@H](O)[C@H](O)CO)CC1)c1ccc(Cl)c(CN(C(=O)NC[C@H](O)[C@@H](O)[C@H](O)[C@H](O)CO)C2(c3cnccc3-c3ccccc3OC3CC3)CC2)c1` (stereo partly drawn) [Compound I-372, 4-[2-(5-{4-chloro-3-[(1-{l-[4-(2-cyclopropoxyphenyl)pyridin-3-yl]cyclopropyl}{[(2S,3R,4R,5R)-2,3,4,5,6-pentahydroxyhexyl]carbamoyl}amino)methyl]phenyl}hexanamido)ethyl]-N-[(2S,3R,4R,5R)-2,3,4,5,6-pentahydroxyhexyl]piperazine-1-carboxamide], 1260 to 10000 nM.
In the case of `O=C(NCCCCC[S+]([O-])c1ccc(Cl)c(COC2(c3cnccc3-c3ccccc3OC3CC3)CC2)c1)NC[C@H](O)[C@@H](O)[C@H](O)[C@H](O)CO` (stereo partly drawn) [Compound I-639, 1-{5-[4-chloro-3-({1-[4-(2-cyclopropoxyphenyl)pyridin-3-yl]cyclopropoxy}methyl)benzenesulfinyl]pentyl}-3-[(2S,3R,4R,5R)-2,3,4,5,6-pentahydroxyhexyl]urea], the EC50 is less than 100 nM.
In the case of `CC(CCCCC(=O)N(C)C[C@H](O)[C@@H](O)[C@H](O)[C@H](O)CO)c1ccc(Cl)c(CNC2(c3cnccc3-c3ccccc3OC3CC3)CC2)c1` (stereo partly drawn) [Compound I-330, 6-{4-chloro-3-[({1-[4-(2-cyclopropoxyphenyl)pyridin-3-yl]cyclopropyl}amino)methyl]phenyl}-N-methyl-N-[(2S,3R,4R,5R)-2,3,4,5,6-pentahydroxyhexyl]heptanamide] it was less than 100 nM; in that of `Cc1ccc(SCCCCC(=O)NC[C@H](O)[C@@H](O)[C@H](O)[C@H](O)CO)nc1COC1(c2cnccc2-c2ccccc2OC2CC2)CC1` [Compound I-657, 5-{[6-({1-[4-(2-cyclopropoxyphenyl)pyridin-3-yl]cyclopropoxy}methyl)-5-methylpyridin-2-yl]sulfanyl}-N-[(2S,3R,4R,5R)-2,3,4,5,6-pentahydroxyhexyl]pentanamide], 1260 to 10000 nM.
On to `CN(C[C@H](O)[C@@H](O)[C@H](O)[C@H](O)CO)C(=O)NC1CCN(C(=O)CCCCc2cc(Cl)c(COC3(c4cnccc4-c4ccccc4OC4CC4)CC3)cc2Cl)CC1` (stereo in doubt) [Compound I-159, 1-(1-{5-[2,5-dichloro-4-({1-[4-(2-cyclopropoxyphenyl)pyridin-3-yl]cyclopropoxy}methyl)phenyl]pentanoyl}piperidin-4-yl)-3-methyl-3-[(2S,3R,4R,5R)-2,3,4,5,6-pentahydroxyhexyl]urea], for which the EC50 was less than 100 nM.
In the case of `CC(OCCc1cc(Cl)c(COC2(c3cnccc3-c3ccccc3OC3CC3)CC2)cc1Cl)C(=O)N(C)C[C@H](O)[C@@H](O)[C@H](O)[C@H](O)CO` (stereo partly drawn) [Compound I-155, 2-{2-[2,5-dichloro-4-({1-[4-(2-cyclopropoxyphenyl)pyridin-3-yl]cyclopropoxy}methyl)phenyl]ethoxy}-N-methyl-N-[(2S,3R,4R,5R)-2,3,4,5,6-pentahydroxyhexyl]propanamide] it was less than 100 nM; in that of `Cc1cc(CNC2(c3cnccc3-c3ccccc3OC3CC3)CC2)c(C)cc1CCCCNC(=O)NC[C@H](O)[C@@H](O)[C@H](O)[C@H](O)CO` (stereo in doubt) [Compound I-147, 1-(4-{4-[({1-[4-(2-cyclopropoxyphenyl)pyridin-3-yl]cyclopropyl}amino)methyl]-2,5-dimethylphenyl}butyl)-3-[(2S,3R,4R,5R)-2,3,4,5,6-pentahydroxyhexyl]urea], 126 to 1000 nM.

The record behind these values is patent US12084472B2 (Ardelyx, Inc., priority 2015, dated 2024).
